# In ChEMBL document CHEMBL1201862, “PubChem BioAssay data set” (2004):
# The source made the active and inactive calls.
# Tests used:
# [1] = molecular target: Cytochrome P450 2C9 (Homo sapiens, UniProt P11712)
# [2] = molecular target: Cytochrome P450 3A4 (Homo sapiens, UniProt P08684);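 also: CYP3A4 tested as one member of a cytochrome P450 panel screen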
# [3] = molecular target: T1, Cytochrome P450 1A2 (Homo sapiens, UniProt P05177);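 also: PubChem cytochrome P450 panel assay, CYP1A2 panel member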
# T1 sequence (P05177 whole entry): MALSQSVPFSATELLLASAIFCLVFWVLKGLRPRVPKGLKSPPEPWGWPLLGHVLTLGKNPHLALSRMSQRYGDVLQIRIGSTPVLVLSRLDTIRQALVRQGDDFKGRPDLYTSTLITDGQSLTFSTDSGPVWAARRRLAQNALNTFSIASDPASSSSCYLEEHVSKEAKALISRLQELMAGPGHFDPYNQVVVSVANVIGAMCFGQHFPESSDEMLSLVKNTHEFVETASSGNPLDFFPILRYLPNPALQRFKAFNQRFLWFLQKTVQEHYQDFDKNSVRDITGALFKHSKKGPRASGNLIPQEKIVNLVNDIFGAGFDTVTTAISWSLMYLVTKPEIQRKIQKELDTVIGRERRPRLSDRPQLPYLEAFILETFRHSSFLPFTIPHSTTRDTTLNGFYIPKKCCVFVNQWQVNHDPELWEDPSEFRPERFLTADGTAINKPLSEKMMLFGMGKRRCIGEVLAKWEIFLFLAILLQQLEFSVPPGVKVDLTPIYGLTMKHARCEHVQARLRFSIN
# [4] = C. albicans growth with fluconazole, confirmation, fluorescence, retest (AID 2467); type: functional, cell-based
# [5] = NIH-3T3 fibroblast cytotoxicity, dose response, cytotoxicity control, cell-based, fluorescence, Alamar Blue, secondary assay (AID 2327); type: functional;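 also: NIH-3T3 mouse fibroblasts cultured with fluconazole at 8 µg/mL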
# [6] = molecular target: T2, Corticotropin-releasing factor receptor 2/Corticotropin-releasing factor-binding protein (Homo sapiens, UniProt P24387+Q13324); assay: activators of CRF receptor 2 with binding protein – uHTS hits, confirmation (AID 602473); type: functional; conditions: read-out: EC50_Mean
# T2 sequence (Q13324 whole entry): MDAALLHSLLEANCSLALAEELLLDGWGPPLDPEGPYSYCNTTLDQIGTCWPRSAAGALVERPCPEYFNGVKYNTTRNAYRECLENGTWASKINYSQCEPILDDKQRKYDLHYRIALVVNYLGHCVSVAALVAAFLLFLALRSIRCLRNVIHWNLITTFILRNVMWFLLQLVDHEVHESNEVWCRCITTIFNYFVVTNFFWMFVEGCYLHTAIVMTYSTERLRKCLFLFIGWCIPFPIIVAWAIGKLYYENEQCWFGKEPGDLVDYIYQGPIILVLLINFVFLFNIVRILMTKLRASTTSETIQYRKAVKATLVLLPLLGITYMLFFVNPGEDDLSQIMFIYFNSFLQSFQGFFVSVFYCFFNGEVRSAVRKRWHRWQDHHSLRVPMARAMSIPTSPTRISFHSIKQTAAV
# T2 sequence (P24387 whole entry): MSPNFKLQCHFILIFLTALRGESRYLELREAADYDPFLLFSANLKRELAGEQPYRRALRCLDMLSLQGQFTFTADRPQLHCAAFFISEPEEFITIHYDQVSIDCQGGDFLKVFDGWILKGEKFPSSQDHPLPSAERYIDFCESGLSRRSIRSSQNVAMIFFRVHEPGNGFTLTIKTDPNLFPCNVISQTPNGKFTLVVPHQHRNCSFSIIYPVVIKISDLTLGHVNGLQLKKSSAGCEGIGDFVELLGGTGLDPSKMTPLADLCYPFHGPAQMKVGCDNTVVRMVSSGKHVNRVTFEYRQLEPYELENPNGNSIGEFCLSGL
# [7] = molecular target: T3, RNA-binding protein pos-1 (Caenorhabditis elegans, UniProt G5EF15); assay: inhibitors of POS-1/mex-3 RNA binding, dose response, biochemical, fluorescence polarization (AID 1964);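 also: purified POS-1 fused to maltose binding protein made in E. coli; potency of compounds blocking POS-1 binding to fluorescent RNA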
# T3 sequence (G5EF15 whole entry): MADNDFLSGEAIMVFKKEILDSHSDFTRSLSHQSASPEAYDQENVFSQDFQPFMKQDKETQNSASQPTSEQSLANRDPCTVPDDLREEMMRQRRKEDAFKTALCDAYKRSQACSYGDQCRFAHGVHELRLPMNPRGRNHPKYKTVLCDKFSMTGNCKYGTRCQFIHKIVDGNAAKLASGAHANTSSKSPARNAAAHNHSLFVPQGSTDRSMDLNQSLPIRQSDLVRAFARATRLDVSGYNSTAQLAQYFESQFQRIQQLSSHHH
# [8] = molecular target: T4, Zinc finger protein mex-5 (Caenorhabditis elegans, UniProt Q9XUB2); assay: MEX-5/TCR-2 RNA interaction inhibitors, dose response, biochemical, C. elegans, fluorescence polarization (AID 1960)
# T4 sequence (Q9XUB2 whole entry): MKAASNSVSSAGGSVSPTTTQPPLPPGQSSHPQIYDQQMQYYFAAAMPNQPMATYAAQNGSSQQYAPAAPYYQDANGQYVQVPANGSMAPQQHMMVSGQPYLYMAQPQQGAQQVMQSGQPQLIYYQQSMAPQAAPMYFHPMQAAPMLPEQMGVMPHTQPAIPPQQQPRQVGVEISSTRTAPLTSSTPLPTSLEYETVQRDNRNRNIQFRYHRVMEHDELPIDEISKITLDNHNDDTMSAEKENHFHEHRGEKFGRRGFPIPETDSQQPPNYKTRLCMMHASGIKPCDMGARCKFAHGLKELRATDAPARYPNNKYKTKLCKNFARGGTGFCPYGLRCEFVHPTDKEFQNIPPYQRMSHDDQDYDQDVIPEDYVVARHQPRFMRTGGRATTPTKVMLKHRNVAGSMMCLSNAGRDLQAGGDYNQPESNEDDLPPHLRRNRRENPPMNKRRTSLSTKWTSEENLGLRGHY
# [9] = molecular target: Cytochrome P450 2C19 (Homo sapiens, UniProt P33261); assay: Cytochrome panel assay with activity outcomes. Panel member name: p450-cyp2c19 Compounds with AC50 equal or less than 10 uM are considered active; type: functional
# [10] = tested on: Streptococcus sp. 'group A'; assay: growth inhibition of control SK(-) GAS strain, dose response, counter-screen for streptokinase expression inhibitor project, luminescence, kanamycin, BacTiterGlo, confirmation (AID 1900); type: functional, organism-based
# [11] = molecular target: T5, Streptokinase A (Streptococcus pyogenes serotype M1, UniProt P10520); assay: S. pyogenes streptokinase expression inhibitors, potency, dose response, plasminogen activation absorbance, OD405 (AID 1914); type: functional, Streptococcus pyogenes M1 GAS;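 also: secreted streptokinase activity via plasminogen activation per viability signal from cell pellet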
# T5 sequence (P10520 whole entry): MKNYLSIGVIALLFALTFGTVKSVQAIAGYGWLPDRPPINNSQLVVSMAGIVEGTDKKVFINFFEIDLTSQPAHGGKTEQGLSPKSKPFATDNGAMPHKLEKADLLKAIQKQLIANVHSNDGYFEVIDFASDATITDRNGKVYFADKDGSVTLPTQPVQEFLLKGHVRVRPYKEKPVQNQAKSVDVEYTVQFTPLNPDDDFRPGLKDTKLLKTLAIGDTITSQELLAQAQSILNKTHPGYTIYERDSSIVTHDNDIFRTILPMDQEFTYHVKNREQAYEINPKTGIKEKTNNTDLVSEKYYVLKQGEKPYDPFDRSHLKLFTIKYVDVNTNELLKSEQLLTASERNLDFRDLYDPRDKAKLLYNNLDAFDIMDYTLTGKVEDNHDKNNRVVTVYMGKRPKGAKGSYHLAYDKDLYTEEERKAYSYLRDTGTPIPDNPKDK
# [12] = tested on: Streptococcus; assay: Group A Streptococcus viability loss, dose response, counter-screen for streptokinase expression inhibitor project, luminescence, BacTiterGlo (AID 1915); type: functional, organism-based;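 also: potency for reduction of bacterial viability or growth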
# Chain of Cytochrome P450 2C9 (P11712 whole entry): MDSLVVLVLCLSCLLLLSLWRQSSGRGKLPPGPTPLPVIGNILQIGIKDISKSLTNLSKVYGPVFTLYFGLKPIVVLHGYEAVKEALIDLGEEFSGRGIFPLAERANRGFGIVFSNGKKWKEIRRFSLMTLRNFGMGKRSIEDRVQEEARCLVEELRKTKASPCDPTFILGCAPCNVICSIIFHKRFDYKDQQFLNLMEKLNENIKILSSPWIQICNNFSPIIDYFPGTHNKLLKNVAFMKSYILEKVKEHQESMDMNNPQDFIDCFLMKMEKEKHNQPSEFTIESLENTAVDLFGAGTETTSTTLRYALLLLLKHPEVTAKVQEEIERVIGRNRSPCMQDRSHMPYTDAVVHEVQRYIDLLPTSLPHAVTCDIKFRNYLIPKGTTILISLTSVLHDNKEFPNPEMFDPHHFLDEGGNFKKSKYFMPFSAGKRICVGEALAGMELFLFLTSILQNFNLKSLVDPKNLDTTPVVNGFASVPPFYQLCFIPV
# Chain of Cytochrome P450 3A4 (P08684 whole entry): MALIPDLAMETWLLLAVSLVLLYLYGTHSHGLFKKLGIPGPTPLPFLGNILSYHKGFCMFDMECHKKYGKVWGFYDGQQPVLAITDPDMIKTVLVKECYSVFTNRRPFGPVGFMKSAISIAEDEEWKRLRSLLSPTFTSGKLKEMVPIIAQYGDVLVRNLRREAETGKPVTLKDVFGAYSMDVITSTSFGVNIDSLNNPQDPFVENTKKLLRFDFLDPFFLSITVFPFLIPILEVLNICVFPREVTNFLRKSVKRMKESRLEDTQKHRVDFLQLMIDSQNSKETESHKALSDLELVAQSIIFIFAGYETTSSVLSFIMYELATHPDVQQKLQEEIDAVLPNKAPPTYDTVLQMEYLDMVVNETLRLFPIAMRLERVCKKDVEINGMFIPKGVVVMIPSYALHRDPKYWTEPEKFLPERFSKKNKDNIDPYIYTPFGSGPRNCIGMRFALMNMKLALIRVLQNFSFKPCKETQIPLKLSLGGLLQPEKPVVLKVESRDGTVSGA
# Chain of Cytochrome P450 2C19 (P33261 whole entry): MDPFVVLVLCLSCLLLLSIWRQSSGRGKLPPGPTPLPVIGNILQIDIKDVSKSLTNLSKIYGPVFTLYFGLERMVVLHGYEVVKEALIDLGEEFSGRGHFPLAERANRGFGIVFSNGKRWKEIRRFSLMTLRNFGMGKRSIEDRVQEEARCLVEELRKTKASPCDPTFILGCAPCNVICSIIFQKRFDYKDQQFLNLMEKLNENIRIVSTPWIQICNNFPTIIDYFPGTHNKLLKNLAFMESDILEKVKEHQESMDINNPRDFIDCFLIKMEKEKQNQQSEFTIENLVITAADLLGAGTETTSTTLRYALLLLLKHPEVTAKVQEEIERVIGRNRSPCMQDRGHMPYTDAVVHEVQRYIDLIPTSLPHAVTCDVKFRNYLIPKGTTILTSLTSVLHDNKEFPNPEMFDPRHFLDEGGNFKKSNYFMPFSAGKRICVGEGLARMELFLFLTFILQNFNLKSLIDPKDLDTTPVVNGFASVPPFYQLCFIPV
structure (smiles),measurement,setting,value
Nc1nc(SCc2ccccc2)c2ncn(Cc3ccccc3)c2n1,AC50,[1],3.16 µM (inconclusive)
same,AC50,[2],3.98 µM (inconclusive)
same,AC50,[3],0.251 µM (inconclusive)
CC(C)c1nc(N2CCN(C(=O)c3ccco3)CC2)c2c3c(sc2n1)CCCC3,EC50,[4],> 38 µM (not active)
same,EC50,[5],> 150 µM (inactive)
COc1cccc(C2C(C(=O)c3ccc(C)cc3)=C(O)C(=O)N2Cc2ccco2)c1 (centres undefined),EC50,[4],3.1 µM (active)
same,EC50,[5],> 160 µM (inconclusive)
COc1ccccc1NC(=O)c1sc2nc(Cc3ccccc3)cc(C(F)(F)F)c2c1N,EC50,[6],6.15 µM (active)
same,EC50,[7],9.55 µM (inconclusive)
same,EC50,[8],16.2 µM (active)
COc1cc(-c2nnc(COC(=O)c3c4c(nc5ccccc35)CCCC4)o2)cc(OC)c1OC,AC50,[3],14.1 µM (inconclusive)
N#Cc1c(NC(=O)CCC(=O)O)ccc2ccccc12,AC50,[9],inconclusive
Cc1cc(C(=O)CSC(=S)SC(C)(C)C)ccc1Cl,AC50,[1],5.01 µM (inconclusive)
same,AC50,[2],3.16 µM (inconclusive)
Cc1ccc2c[nH]nc2c1NC(=S)NC(=O)c1ccccc1,AC50,[9]; read-out: AC50,11.2 µM (inconclusive)
CC(=O)N1CCC2(CC1)CN(C(=O)Nc1cccc(C#N)c1)C2,AC50,[3],12.6 µM (inconclusive)
CN1CCc2nc(N)nc(-c3nc(N)nc4c3CN(C)CC4)c2C1,AC50,[9],inconclusive
CC(C)(C)NC(=O)NC(=O)CN1CCCc2ccccc21,EC50,[4],> 38 µM (not active)
same,EC50,[5],> 150 µM (inactive)
CCC[C@@H]1C[C@@]1(CCC)C(NC(=O)c1cccs1)c1ccc(Cl)cc1 (some centres undefined),AC50,[1],5.01 µM (inconclusive)
same,AC50,[3],10 µM (inconclusive)
COc1ccc(CNC(=O)CN(CC2CCCO2)C(=O)CNS(=O)(=O)c2ccccc2)cc1 (centres undefined),AC50,[1],22.4 µM (inconclusive)
same,AC50,[2],3.98 µM (inconclusive)
CCOc1cccc(CNCCNC(=O)c2nonc2N)c1,AC50,[2],5.01 µM (inconclusive)
same,AC50,[3],39.8 µM (inconclusive)
O=c1cnc2cnc(Oc3ccccc3)nc2n1C1CC1,AC50,[9]; read-out: AC50,39.8 µM (inconclusive)
CCOC(=O)C1=C(N)Oc2ccc(Br)cc2[C@@H]1[C@@H](C#N)C(=O)OCC,AC50,[9]; read-out: AC50,25.1 µM (inconclusive)
Cc1ccccc1-c1cncnc1N1CCN(C)CC1,AC50,[9]; read-out: AC50,39.8 µM (inconclusive)
same,AC50,[3],15.8 µM (inconclusive)
Cn1cnc([N+](=O)[O-])c1SCC(=O)O,AC50,[9],inconclusive
COc1ccc(C2C(C#N)=C(N)OC3=C2C(=O)CC(C)(C)C3)cc1OC (centres undefined),EC50,[7],> 300 µM (not active)
same,EC50,[8],> 300 µM (not active)
CC(=O)Nc1ccc(N/C=C/C(=O)c2ccc(C)o2)cc1,EC50,[7],> 300 µM (not active)
same,EC50,[8],> 300 µM (not active)
Cc1ccccc1OCC(=O)Nc1ccc2c(c1)C(=O)c1ccccc1C2=O,EC50,[7],36.1 µM (active)
same,EC50,[8],> 300 µM (not active)
CC(C)(C)COS(=O)OCC(C)(C)C,AC50,[9],inconclusive
COc1cccc(C(C(=O)NC2CCCC2)N(C(=O)c2ccco2)c2ccc(-n3cnnn3)c(C)c2)c1OC (centres undefined),EC50,[4],> 38 µM (not active)
same,EC50,[5],> 150 µM (inconclusive)
N#CCCn1c(=O)c(-c2cc(F)cc(F)c2)nc2cnc(Nc3ccccc3)nc21,AC50,[3],3.16 µM (inconclusive)
N#Cc1c2c(c(-n3cnc4ccccc43)n3c1nc1ccccc13)CCC2,AC50,[1],10 µM (inconclusive)
same,AC50,[2],3.16 µM (inconclusive)
same,AC50,[3],25.1 µM (inconclusive)
CCCSc1cc(N2CCCC2)nc(-c2ccccc2)n1,AC50,[1],2 µM (inconclusive)
same,EC50,[10],35 µM (active)
same,EC50,[11],> 150 µM (not active)
same,EC50,[12],> 150 µM (not active)
same,AC50,[9]; read-out: AC50,39.8 µM (inconclusive)
O=C1CC(N2CCN(C(c3ccccc3)c3ccccc3)CC2)C(=O)N1Cc1ccc(N2CCCC2=O)cc1 (centres undefined),AC50,[2],22.4 µM (inconclusive)
same,AC50,[9]; read-out: AC50,5.01 µM (inconclusive)
Cc1ccccc1C(C(=O)NC1CCCC1)N(C(=O)Cc1cccs1)c1ccc2c(c1)OCCO2 (centres undefined),AC50,[1],0.891 µM (inconclusive)
COc1ccc2c3c([nH]c2c1)C1CC2C(CC(O)C(OC)C2C(=O)O)CN1CC3 (centres undefined),EC50,[7],> 300 µM (not active)
same,EC50,[8],> 300 µM (not active)
Cc1oc(-c2cccs2)[n+]([O-])c1C,AC50,[3],25.1 µM (inconclusive)
CCOc1ccc(/C=C2\C(=O)c3ccccc3OC2c2ccccc2)cc1 (centres undefined),AC50,[1],10 µM (inconclusive)
same,AC50,[3],12.6 µM (inconclusive)
Cc1cc2oc(=O)c(CC(=O)NCCCO)c(C)c2c2occ(C(C)(C)C)c12,EC50,[7],> 300 µM (not active)
same,EC50,[8],> 300 µM (not active)
COc1ccc(-n2c(=O)c(-c3ccc(Cl)cc3)nc3cncnc32)cc1,AC50,[3],5.01 µM (inconclusive)
CCCc1nnc(NC(=O)c2cccs2)s1,AC50,[1],12.6 µM (inconclusive)
same,AC50,[9]; read-out: AC50,25.1 µM (inconclusive)
CN1CCN(C(=O)c2cnn(-c3ccccc3)c2NC(=O)c2ccccc2)CC1,EC50,[4],> 38 µM (not active)
same,EC50,[5],> 150 µM (inactive)
CN(C)N1C(N)=C(C#N)C(c2cccnc2)C2=C1CC(C)(C)CC2=O (centres undefined),AC50,[1],0.0224 µM (inconclusive)
O=C(NCc1ccccc1)C(c1ccncc1)N(C(=O)c1csnn1)C1CC1 (centres undefined),AC50,[1],1.78 µM (inconclusive)
CCCCOc1ccccc1N,AC50,[1],39.8 µM (inconclusive)
same,AC50,[3],39.8 µM (inconclusive)
Cc1ccc(N/N=C2\COC(C)(C)CC2=O)cc1,EC50,[4],> 38 µM (not active)
same,EC50,[5],> 160 µM (inactive)
